The data set is described as follows: Solubility of surfactants in the base formulation of Example 12. Type of data set: physicochemical. Particulars: base solution of water, dipotassium hydrogen phosphate, potassium hydroxide, benzotriazole; without hydrotrope. Here is the method: A base solution comprising 907.77 g deionised water, 46.22 g of anhydrous dipotassium hydrogen phosphate, 30.98 g of 48% w/w potassium hydroxide solution and 10.36 g benzotriazole was prepared. In the case of Surfadone LP100 and Makon NF12, these surfactants were insoluble in the base formulation, and so were solublised using the hydrotrope, Triton H66 (see formulations 12-D and 12-F).

Molecules are shown by their SMILES.

As to `CCCCCCCCN1CCCC1=O` [Surfadone LP100, N-octyl-2-pyrrolidone], the “solubility in the base formulation” value is on record as “insoluble”.

The record behind these values is patent US12427215B2, “Endoscope disinfectant” (Whiteley Corporation Pty Ltd, priority 2019, dated 2025).
